Source: PMC3445516 (PLoS ONE, 2012)

Assays:
Experiment in all cases: Ambit kinase profiling, competition binding
[1] = molecular target: T1, MYO3B (Homo sapiens, UniProt Q8WXR4); conditions: compound concentration 10 uM, read-out: Percent Competition
T1 construct: purchased Ambit Biosciences (KINOMEscan)
Description: (§1) Supplement pone.0044653.s004.xls, sheet "Compound 122" | column: Percent Competition

[2] = molecular target: T2, LYN (Homo sapiens, UniProt P07948); conditions: compound concentration 10 uM, read-out: Percent Competition
T2 construct: purchased Ambit Biosciences (KINOMEscan)
T2 sequence (P07948 whole entry): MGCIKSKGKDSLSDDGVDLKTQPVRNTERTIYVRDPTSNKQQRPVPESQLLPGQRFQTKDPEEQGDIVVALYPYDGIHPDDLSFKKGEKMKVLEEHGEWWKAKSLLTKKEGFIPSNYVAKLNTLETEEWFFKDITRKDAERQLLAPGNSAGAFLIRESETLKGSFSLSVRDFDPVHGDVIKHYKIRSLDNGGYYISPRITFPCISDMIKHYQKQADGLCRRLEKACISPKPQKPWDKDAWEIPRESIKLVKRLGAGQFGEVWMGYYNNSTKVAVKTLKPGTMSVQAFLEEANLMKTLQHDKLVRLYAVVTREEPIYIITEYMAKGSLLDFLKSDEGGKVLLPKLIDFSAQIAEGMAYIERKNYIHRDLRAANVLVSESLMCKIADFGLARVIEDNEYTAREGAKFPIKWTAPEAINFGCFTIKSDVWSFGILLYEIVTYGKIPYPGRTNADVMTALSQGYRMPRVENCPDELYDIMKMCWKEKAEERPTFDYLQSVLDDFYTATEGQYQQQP
Description: as §1

[3] = molecular target: T3, ITK (Homo sapiens, UniProt Q08881); conditions: compound concentration 10 uM
T3 construct: purchased Ambit Biosciences (KINOMEscan)
Description: as §1

[4] = molecular target: T4, ABL2 (Homo sapiens, UniProt P42684); conditions: compound concentration 10 uM, read-out: Percent Competition
T4 construct: purchased Ambit Biosciences (KINOMEscan)
Description: as §1

[5] = molecular target: T5, CLK3 (Homo sapiens, UniProt P49761); conditions: compound concentration 10 uM, read-out: Percent Competition
T5 construct: purchased Ambit Biosciences (KINOMEscan)
Description: as §1

[6] = molecular target: T6, CDK8 (Homo sapiens, UniProt P49336); conditions: compound concentration 10 uM
T6 construct: purchased Ambit Biosciences (KINOMEscan)
Description: as §1

[7] = molecular target: T7, DAPK2 (Homo sapiens, UniProt Q9UIK4); conditions: compound concentration 10 uM, read-out: Percent Competition
T7 construct: purchased Ambit Biosciences (KINOMEscan)
T7 sequence (Q9UIK4 whole entry): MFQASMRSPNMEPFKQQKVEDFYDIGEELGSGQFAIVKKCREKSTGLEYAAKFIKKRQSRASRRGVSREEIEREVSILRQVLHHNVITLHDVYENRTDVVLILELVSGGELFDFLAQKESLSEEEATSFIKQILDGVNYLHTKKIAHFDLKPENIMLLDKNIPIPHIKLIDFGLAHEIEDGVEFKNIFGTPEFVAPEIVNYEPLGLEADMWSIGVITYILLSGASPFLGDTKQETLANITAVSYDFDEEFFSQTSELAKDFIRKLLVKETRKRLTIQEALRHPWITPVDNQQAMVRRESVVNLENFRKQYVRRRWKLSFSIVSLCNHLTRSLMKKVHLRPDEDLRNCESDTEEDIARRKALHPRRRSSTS
Description: as §1

[8] = molecular target: T8, AMPK-alpha2 (Homo sapiens, UniProt P54646); conditions: compound concentration 10 uM, read-out: Percent Competition
T8 construct: purchased Ambit Biosciences (KINOMEscan)
Description: as §1

[9] = molecular target: T9, LKB1 (Homo sapiens, UniProt Q15831); conditions: compound concentration 10 uM, read-out: Percent Competition
T9 construct: purchased Ambit Biosciences (KINOMEscan)
Description: as §1

[10] = molecular target: T10, CDC2L1 (Homo sapiens, UniProt P21127); conditions: compound concentration 10 uM, read-out: Percent Competition
T10 construct: purchased Ambit Biosciences (KINOMEscan)
Description: as §1

[11] = molecular target: T11, AKT1 (Homo sapiens, UniProt P31749); conditions: compound concentration 10 uM, read-out: Percent Competition
T11 construct: purchased Ambit Biosciences (KINOMEscan)
Description: as §1

[12] = molecular target: T12, CSNK2A1 (Homo sapiens, UniProt P68400); conditions: compound concentration 10 uM, read-out: Percent Competition
T12 construct: purchased Ambit Biosciences (KINOMEscan)
T12 sequence (P68400 whole entry): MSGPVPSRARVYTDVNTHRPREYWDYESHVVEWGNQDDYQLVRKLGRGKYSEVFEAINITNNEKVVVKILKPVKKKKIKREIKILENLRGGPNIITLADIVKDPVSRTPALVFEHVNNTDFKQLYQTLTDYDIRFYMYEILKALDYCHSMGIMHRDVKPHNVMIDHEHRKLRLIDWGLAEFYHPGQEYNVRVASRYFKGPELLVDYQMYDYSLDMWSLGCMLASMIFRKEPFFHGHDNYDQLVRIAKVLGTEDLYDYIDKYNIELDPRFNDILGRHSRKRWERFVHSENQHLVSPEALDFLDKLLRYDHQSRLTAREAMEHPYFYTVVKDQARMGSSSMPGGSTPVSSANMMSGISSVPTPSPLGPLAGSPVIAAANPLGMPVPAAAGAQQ
Description: as §1

[13] = molecular target: T13, ABL1(E255K) (Homo sapiens, UniProt P00519, E255K); conditions: compound concentration 10 uM, read-out: Percent Competition
T13 construct: purchased Ambit Biosciences (KINOMEscan)
Description: as §1

[14] = molecular target: T14, CDK11 (Homo sapiens, UniProt Q9BWU1); conditions: compound concentration 10 uM
T14 construct: purchased Ambit Biosciences (KINOMEscan)
T14 sequence (Q9BWU1 whole entry): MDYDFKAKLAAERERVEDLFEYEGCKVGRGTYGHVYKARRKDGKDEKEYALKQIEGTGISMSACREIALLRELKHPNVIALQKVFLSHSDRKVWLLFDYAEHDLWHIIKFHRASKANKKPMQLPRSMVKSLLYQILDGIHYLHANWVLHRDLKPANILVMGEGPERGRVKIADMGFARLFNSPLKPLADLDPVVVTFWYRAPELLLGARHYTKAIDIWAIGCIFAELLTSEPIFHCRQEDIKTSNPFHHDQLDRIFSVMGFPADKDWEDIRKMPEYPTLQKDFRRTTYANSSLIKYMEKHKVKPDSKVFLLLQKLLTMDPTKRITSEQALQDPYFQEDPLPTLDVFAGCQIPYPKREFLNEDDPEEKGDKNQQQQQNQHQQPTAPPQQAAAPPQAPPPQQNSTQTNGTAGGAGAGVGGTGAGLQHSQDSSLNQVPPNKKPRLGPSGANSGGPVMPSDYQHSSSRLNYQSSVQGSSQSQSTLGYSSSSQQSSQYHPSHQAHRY
Description: as §1

[15] = molecular target: T15, PIP5K1A (Homo sapiens, UniProt Q99755); conditions: compound concentration 10 uM, read-out: Percent Competition
T15 construct: purchased Ambit Biosciences (KINOMEscan)
Description: as §1

[16] = molecular target: T16, MET (Homo sapiens, UniProt P08581); conditions: compound concentration 10 uM
T16 construct: purchased Ambit Biosciences (KINOMEscan)
Description: as §1

[17] = molecular target: T17, TYRO3 (Homo sapiens, UniProt Q06418); conditions: compound concentration 10 uM, read-out: Percent Competition
T17 construct: purchased Ambit Biosciences (KINOMEscan)
Description: as §1

[18] = molecular target: T18, AAK1 (Homo sapiens, UniProt Q2M2I8); conditions: compound concentration 10 uM, read-out: Percent Competition
T18 construct: purchased Ambit Biosciences (KINOMEscan)
T18 sequence (Q2M2I8 whole entry): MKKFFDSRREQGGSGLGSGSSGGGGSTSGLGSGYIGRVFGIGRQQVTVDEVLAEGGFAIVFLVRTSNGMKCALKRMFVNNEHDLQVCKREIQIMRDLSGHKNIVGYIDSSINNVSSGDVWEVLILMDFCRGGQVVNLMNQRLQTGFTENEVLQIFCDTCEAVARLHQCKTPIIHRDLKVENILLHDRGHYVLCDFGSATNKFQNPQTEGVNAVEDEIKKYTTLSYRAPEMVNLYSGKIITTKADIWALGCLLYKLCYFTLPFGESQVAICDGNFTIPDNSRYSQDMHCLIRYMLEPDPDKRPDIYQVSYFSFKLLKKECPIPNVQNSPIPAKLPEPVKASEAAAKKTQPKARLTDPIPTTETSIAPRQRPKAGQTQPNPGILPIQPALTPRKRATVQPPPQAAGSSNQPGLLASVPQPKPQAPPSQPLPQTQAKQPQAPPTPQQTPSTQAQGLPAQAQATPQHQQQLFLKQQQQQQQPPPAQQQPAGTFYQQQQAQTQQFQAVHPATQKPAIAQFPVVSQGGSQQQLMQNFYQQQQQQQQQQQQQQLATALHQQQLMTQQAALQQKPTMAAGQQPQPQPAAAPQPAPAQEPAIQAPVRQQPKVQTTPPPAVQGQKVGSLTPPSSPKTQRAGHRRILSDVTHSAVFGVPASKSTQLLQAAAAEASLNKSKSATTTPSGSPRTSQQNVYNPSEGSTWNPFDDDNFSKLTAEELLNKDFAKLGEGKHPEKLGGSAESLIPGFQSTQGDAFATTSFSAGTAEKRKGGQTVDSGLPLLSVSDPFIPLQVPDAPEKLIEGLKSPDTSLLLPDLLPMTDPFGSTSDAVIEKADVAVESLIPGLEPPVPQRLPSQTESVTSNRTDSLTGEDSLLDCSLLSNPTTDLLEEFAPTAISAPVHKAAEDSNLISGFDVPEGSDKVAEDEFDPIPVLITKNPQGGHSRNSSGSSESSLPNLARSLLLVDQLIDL
Description: as §1

[19] = molecular target: T19, CAMKK1 (Homo sapiens, UniProt Q8N5S9); conditions: compound concentration 10 uM, read-out: Percent Competition
T19 construct: purchased Ambit Biosciences (KINOMEscan)
Description: as §1

[20] = molecular target: T20, PDGFRB (Homo sapiens, UniProt P09619); conditions: compound concentration 10 uM, read-out: Percent Competition
T20 construct: purchased Ambit Biosciences (KINOMEscan)
T20 sequence (P09619 33-1106): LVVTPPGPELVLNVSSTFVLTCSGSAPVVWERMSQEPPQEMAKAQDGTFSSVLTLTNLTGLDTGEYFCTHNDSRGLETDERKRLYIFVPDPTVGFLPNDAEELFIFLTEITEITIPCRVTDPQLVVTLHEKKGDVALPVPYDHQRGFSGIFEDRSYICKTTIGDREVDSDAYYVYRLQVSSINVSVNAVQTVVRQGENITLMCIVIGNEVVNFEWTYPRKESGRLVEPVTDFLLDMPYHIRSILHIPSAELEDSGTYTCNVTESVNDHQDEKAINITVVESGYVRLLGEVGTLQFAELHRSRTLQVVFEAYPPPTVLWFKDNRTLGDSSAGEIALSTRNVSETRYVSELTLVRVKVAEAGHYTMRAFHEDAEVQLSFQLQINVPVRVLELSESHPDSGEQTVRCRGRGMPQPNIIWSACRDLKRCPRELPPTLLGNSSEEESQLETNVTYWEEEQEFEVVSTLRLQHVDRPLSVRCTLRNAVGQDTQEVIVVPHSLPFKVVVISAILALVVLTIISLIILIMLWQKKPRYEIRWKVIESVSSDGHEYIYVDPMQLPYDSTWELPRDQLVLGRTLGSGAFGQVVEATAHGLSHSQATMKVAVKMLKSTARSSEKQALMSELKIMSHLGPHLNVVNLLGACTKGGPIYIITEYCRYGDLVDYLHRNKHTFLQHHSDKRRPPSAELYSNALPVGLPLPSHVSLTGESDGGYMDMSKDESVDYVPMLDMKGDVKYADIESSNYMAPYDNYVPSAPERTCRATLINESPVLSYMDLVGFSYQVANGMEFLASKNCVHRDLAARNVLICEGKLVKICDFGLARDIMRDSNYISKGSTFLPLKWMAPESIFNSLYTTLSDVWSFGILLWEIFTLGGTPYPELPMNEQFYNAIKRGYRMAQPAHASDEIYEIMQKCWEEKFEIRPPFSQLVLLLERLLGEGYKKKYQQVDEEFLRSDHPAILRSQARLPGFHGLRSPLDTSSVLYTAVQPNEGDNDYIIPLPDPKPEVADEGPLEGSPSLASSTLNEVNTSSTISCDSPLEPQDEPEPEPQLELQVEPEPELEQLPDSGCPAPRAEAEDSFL
Description: as §1

[21] = molecular target: T21, SRPK2 (Homo sapiens, UniProt P78362); conditions: compound concentration 10 uM, read-out: Percent Competition
T21 construct: purchased Ambit Biosciences (KINOMEscan)
Description: as §1

[22] = molecular target: T22, CHEK2 (Homo sapiens, UniProt O96017); conditions: compound concentration 10 uM, read-out: Percent Competition
T22 construct: purchased Ambit Biosciences (KINOMEscan)
Description: as §1

[23] = molecular target: T23, TRKA (Homo sapiens, UniProt P04629); conditions: compound concentration 10 uM, read-out: Percent Competition
T23 construct: purchased Ambit Biosciences (KINOMEscan)
Description: as §1

[24] = molecular target: T24, PRKX (Homo sapiens, UniProt P51817); conditions: compound concentration 10 uM, read-out: Percent Competition
T24 construct: purchased Ambit Biosciences (KINOMEscan)
Description: as §1

[25] = molecular target: T25, PKAC-alpha (Homo sapiens, UniProt P17612); conditions: compound concentration 10 uM, read-out: Percent Competition
T25 construct: purchased Ambit Biosciences (KINOMEscan)
Description: as §1

[26] = molecular target: T26, ABL1(Q252H) (Homo sapiens, UniProt P00519, Q252H); conditions: compound concentration 10 uM, read-out: Percent Competition
T26 construct: purchased Ambit Biosciences (KINOMEscan)
Description: as §1

[27] = molecular target: T27, MARK1 (Homo sapiens, UniProt Q9P0L2); conditions: compound concentration 10 uM, read-out: Percent Competition
T27 construct: purchased Ambit Biosciences (KINOMEscan)
T27 sequence (Q9P0L2 whole entry): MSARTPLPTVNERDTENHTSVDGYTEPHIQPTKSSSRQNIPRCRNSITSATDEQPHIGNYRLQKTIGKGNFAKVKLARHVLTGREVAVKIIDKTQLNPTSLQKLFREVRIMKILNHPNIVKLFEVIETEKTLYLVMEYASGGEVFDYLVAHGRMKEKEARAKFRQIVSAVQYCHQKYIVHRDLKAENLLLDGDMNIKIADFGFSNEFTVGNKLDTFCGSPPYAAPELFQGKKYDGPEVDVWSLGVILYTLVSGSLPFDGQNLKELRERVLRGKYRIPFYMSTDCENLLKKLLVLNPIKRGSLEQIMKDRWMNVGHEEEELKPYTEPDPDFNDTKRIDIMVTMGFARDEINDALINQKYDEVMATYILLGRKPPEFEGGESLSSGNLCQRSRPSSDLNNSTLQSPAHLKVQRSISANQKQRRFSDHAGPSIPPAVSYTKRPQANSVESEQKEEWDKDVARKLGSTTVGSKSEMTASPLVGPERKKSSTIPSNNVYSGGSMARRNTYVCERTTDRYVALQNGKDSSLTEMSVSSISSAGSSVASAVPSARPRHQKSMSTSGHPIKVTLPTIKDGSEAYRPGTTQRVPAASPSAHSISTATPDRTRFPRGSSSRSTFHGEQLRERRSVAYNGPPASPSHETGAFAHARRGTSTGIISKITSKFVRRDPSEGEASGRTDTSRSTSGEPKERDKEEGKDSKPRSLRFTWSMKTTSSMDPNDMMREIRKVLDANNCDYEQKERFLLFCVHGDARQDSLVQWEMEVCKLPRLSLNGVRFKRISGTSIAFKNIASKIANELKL
Description: as §1

[28] = molecular target: T28, MLK3 (Homo sapiens, UniProt Q16584); conditions: compound concentration 10 uM
T28 construct: purchased Ambit Biosciences (KINOMEscan)
Description: as §1

[29] = molecular target: T29, FGFR1 (Homo sapiens, UniProt P11362); conditions: compound concentration 10 uM, read-out: Percent Competition
T29 construct: purchased Ambit Biosciences (KINOMEscan)
Description: as §1

[30] = molecular target: T30, PIK3CD (Homo sapiens, UniProt O00329); conditions: compound concentration 10 uM, read-out: Percent Competition
T30 construct: purchased Ambit Biosciences (KINOMEscan)
Description: as §1

[31] = molecular target: T31, PIK3CB (Homo sapiens, UniProt P42338); conditions: compound concentration 10 uM, read-out: Percent Competition
T31 construct: purchased Ambit Biosciences (KINOMEscan)
Description: as §1

[32] = molecular target: T32, MEK1 (Homo sapiens, UniProt Q02750); conditions: compound concentration 10 uM, read-out: Percent Competition
T32 construct: purchased Ambit Biosciences (KINOMEscan)
Description: as §1

[33] = molecular target: T33, ABL1(F317I) (Homo sapiens, UniProt P00519, F317I); conditions: compound concentration 10 uM, read-out: Percent Competition
T33 construct: purchased Ambit Biosciences (KINOMEscan)
Description: as §1

[34] = molecular target: T34, RPS6KA4(Kin.Dom.2-C-terminal) (Homo sapiens, UniProt O75676); conditions: compound concentration 10 uM, read-out: Percent Competition
T34 construct: RPS6KA4(Kin.Dom.2-C-terminal); purchased Ambit Biosciences (KINOMEscan)
Description: as §1

[35] = molecular target: T35, NEK7 (Homo sapiens, UniProt Q8TDX7); conditions: compound concentration 10 uM, read-out: Percent Competition
T35 construct: purchased Ambit Biosciences (KINOMEscan)
T35 sequence (Q8TDX7 whole entry): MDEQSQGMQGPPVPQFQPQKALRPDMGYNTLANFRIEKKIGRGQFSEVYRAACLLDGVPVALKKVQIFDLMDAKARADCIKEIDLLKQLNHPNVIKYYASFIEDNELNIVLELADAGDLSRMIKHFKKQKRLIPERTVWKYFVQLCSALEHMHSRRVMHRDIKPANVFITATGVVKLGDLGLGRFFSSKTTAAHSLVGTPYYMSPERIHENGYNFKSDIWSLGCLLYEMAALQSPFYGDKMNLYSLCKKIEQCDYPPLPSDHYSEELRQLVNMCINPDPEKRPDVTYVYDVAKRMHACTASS
Description: as §1

[36] = molecular target: T36, RPS6KA2(Kin.Dom.2-C-terminal) (Homo sapiens, UniProt Q15349); conditions: compound concentration 10 uM, read-out: Percent Competition
T36 construct: RPS6KA2(Kin.Dom.2-C-terminal); purchased Ambit Biosciences (KINOMEscan)
Description: as §1

[37] = molecular target: T37, KIT(D816V) (Homo sapiens, UniProt P10721, D816V); conditions: compound concentration 10 uM, read-out: Percent Competition
T37 construct: purchased Ambit Biosciences (KINOMEscan)
Description: as §1

[38] = molecular target: T38, EPHB1 (Homo sapiens, UniProt P54762); conditions: compound concentration 10 uM, read-out: Percent Competition
T38 construct: purchased Ambit Biosciences (KINOMEscan)
Description: as §1

[39] = molecular target: T39, SRPK3 (Homo sapiens, UniProt Q9UPE1); conditions: compound concentration 10 uM, read-out: Percent Competition
T39 construct: purchased Ambit Biosciences (KINOMEscan)
Description: as §1

[40] = molecular target: T40, FLT3(D835H) (Homo sapiens, UniProt P36888, D835H); conditions: compound concentration 10 uM, read-out: Percent Competition
T40 construct: purchased Ambit Biosciences (KINOMEscan)
Description: as §1

inhibition at 10 µM [1]: < 50%
inhibition at 10 µM [2]: < 50%
Percent Competition [3]: <50%
inhibition at 10 µM [4]: < 50%
inhibition at 10 µM [5]: < 50%
Percent Competition [6]: <50%
inhibition at 10 µM [7]: < 50%
inhibition at 10 µM [8]: < 50%
inhibition at 10 µM [9]: < 50%
inhibition at 10 µM [10]: 91%
inhibition at 10 µM [11]: < 50%
inhibition at 10 µM [12]: < 50%
inhibition at 10 µM [13]: < 50%
Percent Competition [14]: <50%
inhibition at 10 µM [15]: < 50%
Percent Competition [16]: <50%
inhibition at 10 µM [17]: < 50%
inhibition at 10 µM [18]: < 50%
inhibition at 10 µM [19]: < 50%
inhibition at 10 µM [20]: < 50%
inhibition at 10 µM [21]: < 50%
inhibition at 10 µM [22]: < 50%
inhibition at 10 µM [23]: < 50%
inhibition at 10 µM [24]: < 50%
inhibition at 10 µM [25]: < 50%
inhibition at 10 µM [26]: < 50%
inhibition at 10 µM [27]: < 50%
Percent Competition [28]: <50%
inhibition at 10 µM [29]: < 50%
inhibition at 10 µM [30]: < 50%
inhibition at 10 µM [31]: < 50%
inhibition at 10 µM [32]: < 50%
inhibition at 10 µM [33]: < 50%
inhibition at 10 µM [34]: < 50%
inhibition at 10 µM [35]: < 50%
inhibition at 10 µM [36]: < 50%
inhibition at 10 µM [37]: < 50%
inhibition at 10 µM [38]: < 50%
inhibition at 10 µM [39]: < 50%
inhibition at 10 µM [40]: < 50%
SMILES: Fc1ccc(-c2c(-c3ccncc3)[nH]c3nccnc23)cc1 [RO1155697-000-005]
